Laboratory results reported in the NIST ThermoML archive (doi:10.1016/j.jct.2004.09.009).

Key:
[1] = xn = mol fraction of the nth substance listed; conditions: 101.3 kPa, Liquid
[2] = Liquid; for mass density: 298.15 K, 101.33 kPa, Vibrating tube method; for Normal boiling temperature / vapor or sublimation pressure: Ebulliometric method (Recirculating still)

CC1CCCCC1 [methylcyclohexane] + CCOC(=O)OCC
[1], x2 = 0
Conditions | mass density [kg/m3]
293.15 K | 769.3
298.15 K | 764.98
303.15 K | 760.65
308.15 K | 756.29
313.15 K | 751.93

CCOC(=O)OCC [diethyl carbonate] + CC1CCCCC1
mass density [kg/m3], [1]
Conditions | 293.15 K | 298.15 K | 303.15 K | 308.15 K | 313.15 K
x1 = 0.0473 | 777.44 | 773.05 | 768.64 | 764.22 | 759.78
x1 = 0.0978 | 786.43 | 781.97 | 777.5 | 773 | 768.48
x1 = 0.1985 | 804.96 | 800.36 | 795.73 | 791.09 | 786.42
x1 = 0.2968 | 823.73 | 818.99 | 814.23 | 809.44 | 804.6
x1 = 0.3924 | 842.56 | 837.7 | 832.8 | 827.88 | 822.9
x1 = 0.4993 | 864.26 | 859.23 | 854.18 | 849.14 | 844.04
x1 = 0.5999 | 885.33 | 880.2 | 875.04 | 869.85 | 864.64
x1 = 0.6985 | 906.48 | 901.24 | 895.95 | 890.65 | 885.31
x1 = 0.7988 | 928.64 | 923.28 | 917.88 | 912.46 | 907.02
x1 = 0.8996 | 951.53 | 946.06 | 940.54 | 935.01 | 929.44
x1 = 0.9509 | 963.41 | 957.86 | 952.29 | 946.7 | 941.08
x1 = 1 | 974.83 | 969.24 | 963.61 | 957.96 | 952.29

COC(=O)OC [dimethyl carbonate]
[2]
Conditions | Normal boiling temperature [°C] | mass density [kg/m3]
– | 90.31 | 1063.36

CCC(C)O (stereo not drawn) [butan-2-ol]
[2]
Conditions | Normal boiling temperature [°C] | mass density [kg/m3]
– | 99.19 | 802.4

[2]
Conditions | vapor or sublimation pressure [kPa]
355.98 K | 53.32
358.8 K | 59.98
361.41 K | 66.64
363.82 K | 73.31
366.02 K | 79.97
368.13 K | 86.64
370.09 K | 93.3
370.83 K | 95.97
371.54 K | 98.63
372.34 K | 101.3
373.09 K | 103.97
373.79 K | 106.63
375.46 K | 113.3
377.04 K | 119.96
378.57 K | 126.63
380.02 K | 133.29
381.42 K | 139.95
382.76 K | 146.62
384.06 K | 153.28
385.31 K | 159.95
386.52 K | 166.61
387.69 K | 173.28
388.83 K | 179.94
389.94 K | 186.61
391 K | 193.27
392.05 K | 199.93
393.07 K | 206.6
394.07 K | 213.26
395.06 K | 219.93
396.01 K | 226.59
396.94 K | 233.26
397.86 K | 239.92
398.76 K | 246.59
399.64 K | 253.25
400.48 K | 259.91
401.34 K | 266.58
402.19 K | 273.24
402.98 K | 279.91
403.77 K | 286.57
404.56 K | 293.24
405.32 K | 299.9

CC1CCCCC1 [methylcyclohexane]
[2]
Conditions | Normal boiling temperature [°C] | mass density [kg/m3]
– | 100.92 | 764.98

[2]
Conditions | vapor or sublimation pressure [kPa]
352.46 K | 53.32
356.26 K | 59.98
359.62 K | 66.64
362.83 K | 73.31
365.81 K | 79.97
368.47 K | 86.64
370.99 K | 93.3
371.98 K | 95.97
373.08 K | 98.63
374.07 K | 101.3
374.95 K | 103.97
375.86 K | 106.63
378.04 K | 113.3
380.12 K | 119.96
382.12 K | 126.63
384.05 K | 133.29
385.89 K | 139.95
387.59 K | 146.62
389.36 K | 153.28
391.04 K | 159.95
392.8 K | 166.61
394.38 K | 173.28
395.87 K | 179.94
397.33 K | 186.61
398.76 K | 193.27
400.12 K | 199.93
401.45 K | 206.6
402.8 K | 213.26
404.1 K | 219.93
405.35 K | 226.59
406.56 K | 233.26
407.66 K | 239.92
408.9 K | 246.59
409.98 K | 253.25

CCOC(=O)OCC [diethyl carbonate]
[2]
Conditions | Normal boiling temperature [°C] | mass density [kg/m3]
– | 126.17 | 969.24

CC(C)O [propan-2-ol]
[2]
Conditions | Normal boiling temperature [°C] | mass density [kg/m3]
– | 82.46 | 780.87

[2]
Conditions | vapor or sublimation pressure [kPa]
345.46 K | 66.64
347.71 K | 73.31
349.79 K | 79.97
351.72 K | 86.64
353.54 K | 93.3
354.01 K | 95.04
355.25 K | 99.97
355.61 K | 101.3
356.27 K | 103.97
356.9 K | 106.63
358.45 K | 113.3
359.91 K | 119.96
361.29 K | 126.63
362.65 K | 133.29
363.94 K | 139.95
365.2 K | 146.62
366.38 K | 153.28
367.56 K | 159.95
368.65 K | 166.61
369.76 K | 173.28
371.81 K | 186.61
372.8 K | 193.27
373.76 K | 199.93
374.69 K | 206.6
375.57 K | 213.26
376.46 K | 219.93
377.29 K | 226.59
378.13 K | 233.26
378.93 K | 239.92
379.71 K | 246.59
380.45 K | 253.25
381.17 K | 259.91
381.89 K | 266.58
382.8 K | 273.24
383.48 K | 279.91
384.11 K | 286.57
384.79 K | 293.24
385.42 K | 299.9
